Like-named read-outs stand apart in the source and are kept apart here.
Columns and labels:
[1] = Animal parameters (food, body weight, liver weight/body weight) in cholesterol-fed rabbits; format: in vivo, Female New Zealand White rabbits; details: % of control, diet 0.4%, 7 days, 0.2% cholesterol chow, N = 5
Text: (§1) Perform five independent experiments in the following manner. Each study has a control group and 1-5 groups treated with MDL compound (N = 5 per group). Feed Female New Zealand White rabbits (Hazelton, ∼ 2.0-2.3 kg) 0.2% cholesterol enriched rabbit chow (Purina #5322) with or without 0.4% MDL compound. Solubilize the MDL compounds in 100% ethanol. Spray the chow with the MDL mixtures and allow to dry overnight in a chemical fume hood. Spray control chow with ethanol. Feed rabbits 100 grams food per day for 7 days (0.6% MDL 103,491 were fed for 14 days); make available water ad libitum. On day 7, bleed (~ 2 mL) rabbits (fasted overnight) from a marginal ear vein. Euthanize rabbits by carbon dioxide overdose. Record the total body and liver weights in grams. Record food as grams • day^-1 · rabbit^-1. Use aliquots of fresh serum for clinical chemistries, lipoprotein cholesterol determination, thiobarbituric acid reactive substances (TBARS) and compound and metabolite concentrations in serum. Freeze livers (∼ 5 gram aliquots) at -20°C for compound and metabolite concentration determination at a later time.

[2] = HPLC quantitation of compound and metabolite concentration in rabbit serum and liver; format: in vivo, Female New Zealand White rabbits; details: female, New Zealand White, oral, 0.4 % in chow, diet 0.4%, 7 days, mean N = 5
Text: as §1
Determine serum and liver concentrations of parent compounds and the metabolites, bisphenol and diphenoquinone, by reverse phase HPLC using a Waters 990 Powerline system. […] Calculate compound concentrations from known quantities of authentic parent compounds after correction for recovery. […]

[3] = system: oxidation of serum lipids; test: TBARS assay on serum of treated cholesterol-fed rabbits (CuSO4-initiated oxidation); format: in vivo, Female New Zealand White rabbits; details: % of control, thiobarbituric acid reactive substances as nmole MDA, diet 0.4%, 7 days, N = 5
Text: as §1, with “Freeze livers (∼ 5 gram aliquots) at -20°C for compound and metabolite concentration determination at a later time.” left out
TBARS are a […] indication of the oxidation of lipids in a sample. […] Upon incubation with thiobarbituric acid, the absorbance of the aldehydes can be detected at 530-540 nm. […] Measure absorbances at 540 nm using a Biotek model EL311 microplate reader. The nmoles of MDA produced are calculated from a standard curve of 0 to 10 nmoles of MDA prepared from malonaldehyde bis(dimethylacetal). […]

VCAM-1 = test: Inhibition of VCAM-1 expression in proliferating human umbilical vein endothelial cells (cell ELISA); format: cell-based; details: HUVEC, coincubated with tumor necrosis factor-alpha about 20 to 24 hr, average of three runs, numbers in parentheses represent negative values, read-out: VCAM-1 (% inh. 50 µM)
Procedure: Plate proliferating human umbilical vein endothelial cells (HUVEC) or human aortic smooth muscle cells (HASMC) from Clonetics (San Diego, CA) onto 96-well plates in 100 µL medium per well at 20,000 cells per cm^2. Maintain the cultures in growth medium (EGM or SMGM2, Clonetics, San Diego, CA) for two days prior to addition of cytokines or drugs. Add cytokines plus or minus compounds for 20 to 24 hours prior to analysis for adhesion molecule levels. Add tumor necrosis factor (Genzyme, Cambridge, MA) to cultures at 500-1000 units/mL to stimulate ICAM-1 expression. Add interleukin-4 (GIBCO-BRL, Gaithersburg, MD) to cultures at 100-200 pg/mL to stimulate VCAM-1 expression. […] Remove the culture medium, and wash the monolayers twice with Hanks buffered saline solution (HBSS) at room temperature. Add the primary antibody (anti-human VCAM-1 from Upstate Biotechnology, Inc., Lake Placid, NY or anti-human ICAM-1 from Immunotech, Inc., Westbrook, ME) to each well (1 µg/mL in HBSS plus 5% newborn calf serum, GIBCO-BRL, Gaithersburg, MD) and incubate at 37°C for 1 hr. Wash the wells twice with HBSS, then add 100 µL of a 1/1000 dilution of goat anti-mouse IgG conjugated to horse radish peroxidase (BioRad, Hercules, CA) in HBSS plus 5% newborn calf serum to each well and incubated for 1 hr at 37°C. […] Measure absorbance at 450 nm with a plate reader. […]

SMILES | food ([1]; grams eaten per day per rabbit) [%] | lw/bw ([1]; liver weight / body weight) [%] | body wt. ([1]; weight in grams) [%] | concentration at 7 day ([2]; parent compound concentration in rabbit liver, read-out: Liver Parent) [ng/g] | concentration at 7 day ([2]; parent compound concentration in rabbit serum, read-out: Serum Parent) [ng/mL] | TBARS [3] [%] | inhibition at 50 µM (VCAM-1) [%]
CC(C)=CCC[C@H](C)CCOc1cc(C(C)(C)C)c(O)c(C(C)(C)C)c1 [MDL 103,294, Phenol, 2,6-bis(1,1-dimethylethyl)-4-[(3,7-dimethyl-6-octenyl)oxy]-, (S)-] | 103 | 105 | 100 | 77000 | 19800 | 35 | –
CC(C)=CCCC(C)CCSc1cc(C(C)(C)C)c(O)c(C(C)(C)C)c1 (centres unmarked) [MDL 103,960, Phenol, 2,6-bis(1,1-dimethylethyl)-4-[(3,7-dimethyl-6-octenyl)thio]-] | – | – | – | – | – | – | 25.7
CC(C)CCCC(C)CCOc1ccc(O)c(C(C)(C)C)c1 (centres unmarked) [MDL 104,191, Phenol, 2-(1,1-dimethylethyl)-4-[(3,7-dimethyloctyl)oxy]-] | – | – | – | – | – | – | 34.3
